The nature of this data set: gradient 5% acetonitrile 3 min, to 50% in 2 min, to 85% in 15 min, held 3 min, 100 µL/min. Conditions: column: Zorbax Extend-C18 2.1 x 50 mm; eluents: water / acetonitrile, 0.1% formic acid. An outline of the steps:
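The system's dead and dwell volumes were 40 μL and 900 μL, with a Zorbax Extend-C18 column (2.1 × 50 mm, 1.8 μm) run at 100 μL/min in water and acetonitrile containing 0.1% formic acid each. Pure standards were analyzed in mixtures of ~100 molecules by HPLC–quadrupole time-of-flight mass spectrometry in positive and negative ionization mode. Retention time was assigned from computationally picked, manually inspected adduct peaks.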
As to `C[C@H](CSC(=O)c1ccccc1)C(=O)N1c2ccccc2C[C@H]1C(=O)O`, the RP-LC retention time was determined as 877 s.

`COC(=O)c1c(NC(C)c2cccnc2)c2cccc(Cl)c2[nH]c1=O` (stereo not drawn) had an RP-LC retention time of 572 s. For `COc1ccccc1-c1noc(C2CCCN2C(=O)Nc2ccc(C)c(C)c2)n1` (stereo not drawn) the value was 925 s; for `CC(C)CCNC(=O)N1CCC(OC2CCN(Cc3ccccc3)CC2)CC1`, 641 s.

Regarding `Cc1cccc(-c2csc3c(=O)n(Cc4ccc(N5CCCC5=O)cc4)cnc23)c1`, the RP-LC retention time was found to be 937 s. On to `O=C(NC1CCN(Cc2ccccc2)CC1)C1CCCN(c2ncnc3c2nc2n3CCCCC2)C1` (stereo not drawn), for which the RP-LC retention time worked out at 1050 s.

On to `CCOC(=O)c1c(C)oc2ncnc(N3CCc4cc(OC)c(OC)cc4C3C)c12` (stereo not drawn), for which the RP-LC retention time worked out at 981 s. The compound `O=C(CSc1nnc(-c2cccc(Br)c2)o1)c1ccc([N+](=O)[O-])cc1` displayed an RP-LC retention time of 1020 s. For the compound `CCN1C(=O)c2cccnc2Sc2cc(NC(=O)c3ccc(F)cc3Cl)ccc21`, the RP-LC retention time turned out to be 852 s. The result for `O=C(Nc1cccc(-c2ccc(N3CCCC3)nn2)c1)c1c(F)cccc1F` reads 647 s; that for `Cc1csc(NC(=O)c2ccc(C(=O)Nc3nc(C)cs3)cc2)n1`, 845 s; that for `c1ccc(OCc2nc(-c3ccc(-c4csc(C5CC5)n4)cc3)no2)cc1`, 1330 s. Take `Cc1ccc(C(=O)N2CCC(Nc3ncnc4c3CCC4)CC2)cn1`: the RP-LC retention time turned out to be 583 s. The result for `CC(C)c1cccc(NC(=O)Cn2ncc3c(N4CCN(c5ccccn5)CC4)ncnc32)c1` reads 570 s; that for `CN1c2cc(C(=O)Nc3ccc(OC(F)(F)F)cc3)ccc2C(=O)N2CCCCC21` (stereo not drawn), 1010 s.

The compound `CS(=O)(=O)Nc1ccc(C2(C(=O)NCc3cccc(Cl)c3)CCCCC2)cc1` registered an RP-LC retention time of 948 s.

As to `O=C(Cc1ccc(Cl)cc1)NCc1nc(-c2ccc(-c3csc(C4CC4)n3)cc2)no1`, the RP-LC retention time is 1110 s.

Turning to `COc1ccc(Cl)cc1C(=O)NCC1(O)CCOCC1`, the RP-LC retention time turned out to be 622 s. `CCCCOc1ccc(NC(=O)Nc2ccc3c(c2)CN(C(=O)CC)CC3)cc1`: the RP-LC retention time turned out to be 861 s. Turning to `COC(=O)c1cc(S(=O)(=O)N2CCCC2C(=O)Nc2ccc(F)cc2Cl)cn1C` (stereo not drawn), the RP-LC retention time came to 938 s. Consider `Cc1ccc(CNC(=O)C2(C)CN(S(=O)(=O)c3ccccc3)CC(=O)N2c2ccc(F)cc2)cc1` (stereo not drawn), for which the RP-LC retention time was found to be 942 s. The compound `Cc1noc(C)c1Cc1ccc(C(=O)NCCc2noc(C3CC3)n2)o1` returned an RP-LC retention time of 745 s. Regarding `CCCCOc1ccc(-c2cc3c4nnc(CCC(=O)NCc5ccccc5C)n4ccn3n2)cc1`, the RP-LC retention time worked out at 1010 s. The result for `CN(C)c1ccc(N2C=C(C(=O)N3CCCC3)S(=O)(=O)c3ccc(Cl)cc32)cc1` reads 928 s; that for `CCn1cc(-c2ccc(C)cc2)cc1C(=O)N1CCC(C)CC1`, 1230 s; that for `O=c1ncn2nc(Sc3ccc(F)cc3F)ccc2c1-c1c(Cl)cccc1Cl`, 894 s. The result for `CCn1cc(-c2ccc(Cl)cc2)cc1C(=O)NCc1ccncc1` reads 720 s; that for `O=C(NCc1ccc(Cl)cc1)C1CCN(c2ccc(SCc3ccccc3)nn2)CC1`, 824 s. For `CCOc1ccc(NC(=O)c2cnc(N3CCN(c4ccc(OC)cc4)CC3)nc2N)cc1` the value was 767 s. The compound `Cn1nc(C(=O)N2CCCC2)c2c1CCN(C(=O)CCC(=O)NCCc1c[nH]c3ccccc13)C2` displayed an RP-LC retention time of 685 s. With `Cc1nnc2c(=O)n(CC(=O)NCc3cccc(F)c3)c3cccnc3n12`, the RP-LC retention time was determined as 656 s. Consider `O=S(=O)(c1ccccc1Cl)N1CCC(OCc2noc(C3CCCO3)n2)CC1` (stereo not drawn), for which the RP-LC retention time was 912 s. In turn, `CCOc1cc(=O)n2c(c1C(=O)NCC1CCCCC1)CCCCC2` displayed an RP-LC retention time of 772 s.

In the case of `Cc1cc(C)n2nc(SCC(=O)Nc3ccc(Br)cc3F)nc2n1`, the RP-LC retention time stood at 850 s.

The compound `O=C(NC1CCN(Cc2ccccc2)CC1)c1cn2nc(Cl)ccc2n1` showed an RP-LC retention time of 621 s. As to `Cc1nc(S(=O)(=O)N2CCC(C(=O)N3CCN(c4ccccc4)CC3)CC2)cn1C`, the RP-LC retention time is 687 s. `Cc1ccc(NC(=O)c2cn3c(n2)CCCC3)c(F)c1` yielded an RP-LC retention time of 720 s. For the compound `CCC[C@@H]1C[C@@H](C(=O)N[C@@H]([C@H]2O[C@H](SC)[C@@H](O)[C@@H](O)[C@H]2O)[C@@H](C)O)N(C)C1`, the RP-LC retention time was 584 s. `Cc1cccc2c(=O)n(C3CCN(S(=O)(=O)c4ccc(Cl)cc4)CC3)cnc12` gave an RP-LC retention time of 1030 s. As for `CCN(CC)C(=O)c1cc2c(s1)CCC(C(=O)N1CCC(C)CC1)C2` (stereo not drawn), the RP-LC retention time is 806 s. `O=C(Nc1ccc(F)c(Cl)c1)c1cn2c(n1)CCCC2` returned an RP-LC retention time of 648 s. The compound `Cc1ccc(NC(=O)N2CCc3nc(-c4ccccc4)ncc3C2)cc1C` registered an RP-LC retention time of 995 s. On to `O=C(Nc1ccc(Br)cc1F)Nc1c(-c2ccncc2)nc2ccccn12`, for which the RP-LC retention time worked out at 652 s. In the case of `Cc1cc(S(=O)(=O)N2CCN(C3CCN(CCC(C)C)C3=O)CC2)ccc1Cl` (stereo not drawn), the RP-LC retention time was found to be 773 s. As for `COc1ccccc1-c1cc2nc(C)cc(N3CCN(c4ccccn4)CC3)n2n1`, the RP-LC retention time turned out to be 580 s. Compound `Cc1ccc(NC(=O)CN2C(=O)CCCc3cc(S(=O)(=O)N4CCCC4)ccc32)cc1` showed an RP-LC retention time of 855 s.

As for `Cc1noc(CNC(=O)C2CCN(C(=O)c3cc(-c4ccccc4)n[nH]3)CC2)n1`, the RP-LC retention time turned out to be 610 s. The compound `CC(C)OCCCNC(=O)CCc1nnc2c3cc(-c4ccc(F)cc4)nn3ccn12` gave an RP-LC retention time of 710 s. Compound `COc1ccc(NC(=O)CN2C(=O)C(C)(C)c3ccccc32)cc1` came in with an RP-LC retention time of 826 s. `COc1ccc(C(=O)NC2CCN(c3cc(-c4cccs4)[nH]n3)C2)c(OC)c1` (stereo not drawn) gave an RP-LC retention time of 724 s. `Cc1ccc(C(=O)N2CCCC(COc3ccc(C(=O)NC(C)C)cc3)C2)cc1F` (stereo not drawn) registered an RP-LC retention time of 896 s.

Regarding `COc1ccc(-c2nnc(SCC(=O)Nc3nccs3)o2)cc1`, the RP-LC retention time turned out to be 720 s.

Take `CC1CCN(S(=O)(=O)c2ccc(-c3nnc(C(=O)NCCCN4CCCC4=O)o3)cc2)CC1`: the RP-LC retention time was 792 s. The compound `Cc1cccc(OCC(=O)N2C[C@@H](F)C[C@H]2C(=O)N2CCc3ccccc32)c1` had an RP-LC retention time of 878 s. The compound `COCCN1CCC2(CC1)CN(Cc1cc(Cl)ccc1F)Cc1ccccc1O2` yielded an RP-LC retention time of 778 s. `Cn1c(=O)c(N2CCN(C(=O)c3ccc(Br)cc3)CC2)nc2cccnc21` came in with an RP-LC retention time of 911 s. `COc1ccc(-c2cn3ccn(-c4ccc(F)cc4)c(=O)c3n2)cc1` registered an RP-LC retention time of 776 s.

As for `COc1ccccc1C(=O)NCCc1c[nH]c2ccc(Cl)cc12`, the RP-LC retention time worked out at 640 s. For `Cc1ccc(N2N=C(C(=O)N3CCN(C(C)C)CC3)S(=O)(=O)c3cccnc32)cc1` the value was 649 s; for `CCN(CC)C(=O)N1CC(Oc2ccccc2-c2nc(-c3cnccn3)no2)C1`, 784 s; for `CCN1C(=O)c2cc(S(=O)(=O)Nc3cccc(C)c3C)ccc2Oc2cccnc21`, 1030 s. As for `CC(=O)Nc1ccc(C2(C(=O)NCc3cccc(F)c3)CCC2)cc1`, the RP-LC retention time was 751 s. Consider `CCCNC(=O)N1CCCN(C)c2ccccc21`, for which the RP-LC retention time came out at 613 s.

`COc1ccc(NC(=O)Cn2cccc2-c2nnc(-c3ccccc3)o2)cc1Cl` yielded an RP-LC retention time of 997 s. As for `O=C(CSc1ccc(N2CCCC(C(=O)NC3CC3)C2)nn1)Nc1cc(F)cc(F)c1` (stereo not drawn), the RP-LC retention time turned out to be 680 s. The compound `CCNc1cc(N2CCC(CCC(=O)NCc3ccccc3F)CC2)ncn1` yielded an RP-LC retention time of 646 s. For the compound `CC(=O)Oc1ccc(C2=NN(C(C)=O)C(c3ccc(F)cc3)O2)c(OC(C)=O)c1` (stereo not drawn), the RP-LC retention time was found to be 936 s. For the compound `Cc1c(Cl)cccc1S(=O)(=O)Nc1ccccc1N1CCNC(=O)C1`, the RP-LC retention time was 738 s.

As to `CCC1c2nccn2CCCN1C(=O)CCc1c(C)noc1C` (stereo not drawn), the RP-LC retention time turned out to be 623 s. Consider `CCCn1cnc2cc(-c3noc(C4CC(=O)N(c5ccccc5)C4)n3)ccc21` (stereo not drawn), for which the RP-LC retention time was determined as 711 s. In the case of `CC(C)(C)c1ccc(-c2nc3ccccc3[nH]2)cc1`, the RP-LC retention time is 702 s. The result for `COc1cccc(-c2nc(-c3ccc4ncn(C(C)C)c4c3)no2)c1OC` reads 766 s.

In the case of `O=C1NC(=O)c2c(NC(=O)C3(c4ccc(Cl)cc4)CCCC3)cccc21`, the RP-LC retention time was determined as 1060 s. Consider `COc1cccc(-c2noc(Cn3c(=O)n(-c4ccccc4F)c(=O)c4sccc43)n2)c1`, for which the RP-LC retention time was 957 s. For `CCn1nccc1-c1cccc(-c2noc(-c3ccc(C)c(C)c3)n2)c1` the value was 1420 s; for `COc1ccc(CNC(=O)N2c3ccccc3CC2c2nc(C(C)C)no2)cc1` (stereo not drawn), 1000 s; for `CCCNC(=O)C1CCN(c2cnc(N3CCN(CC)CC3)nc2)CC1`, 565 s. With `CS(=O)(=O)c1ccccc1C(=O)Nc1nc(-c2cc(Cl)sc2Cl)cs1`, the RP-LC retention time came to 1030 s.

The record behind these values is the METLIN SMRT retention time set (Domingo-Almenara et al. 2019).
